{"source": "patent EP0238198A2", "about": "“Method of modifying the lipid structure function and expression of cell membranes and pharmaceutical compositions for use therein” (Habib, Nagy Adly, priority 1986, dated 1987)", "experiment_in_all_cases": "tumour cell colony inhibition test (clonogenic assay)", "assay_type_in_all_cases": "cell-based", "key": {"D261 Rat hepatoma": {"test_system": "D261 Rat hepatoma", "details": "for Mean no colonies ± SE: 5 days, medium control 33.0±5.1", "experimental": "(§1) Cells from rat mammary carcinoma (Sp 22), primary rat fibroblasts (from alveolar tissue) and four rat hepatoma cell lines (D23, D261, D262A and D262B) were studied.\n(§2) The method used for rat cells was as follows: 200 cells were plated per dish in 1 ml 'Eagles' methionine enriched medium (MEM) + 10% newborn calf serum (NBCS) in 30 mm culture dishes and incubated for four hours at 37°C. All became firmly adherent during this initial incubation. […] Dilutions containing 20 µg/ml, […], 200 ng/ml and 2 ng/ml were prepared, 1 ml of each dilution was added to four dishes of cells, the final concentration being half the concentration of the material added. […] To control dishes 1 ml of MEM + NBCS was added, or 1 ml of MEM + NBCS + 1% ethanol. The dishes were incubated for 5 days. Medium was then removed, and the cell colonies were rinsed with 0.9% W/V NaCl solution and fixed for 15 minutes with methanol. Cell colonies were stained with 1% aqueous crystal violet and the dishes were allowed to dry."}, "[1]": {"test_system": "Sp22 Rat mammary carcinoma", "details": "for Mean no colonies ± SE: 5 days, medium control 61.0±6", "experimental": "as §1, §2"}, "D262B Rat hepatoma": {"test_system": "D262B Rat hepatoma", "details": "for Mean no colonies ± SE: 5 days, medium control 37.0± 4.0", "experimental": "as §1, §2"}, "[2]": {"details": "Rattus norvegicus, 120 h, read-out: % colony formation relative to medium control"}}}
{"smiles": "CCCCCCCCCCCCCCCCCC(=O)O", "note": "[stearic acid, octadecanoic acid]", "values": [{"measurement": "activity at 1 µg/mL", "setting": "D261 Rat hepatoma; [2]", "result": 64.5, "unit": "%"}, {"measurement": "activity at 10 µg/mL", "setting": "D261 Rat hepatoma; [2]", "result": 54.5, "unit": "%"}, {"measurement": "activity at 50 µg/mL", "setting": "D261 Rat hepatoma; [2]", "result": 18.1, "unit": "%"}, {"measurement": "inhibition of colony formation", "setting": "D261 Rat hepatoma; dose of 10 µg/ml", "result": "significant inhibition of colony formation"}, {"measurement": "Mean no colonies ± SE", "setting": "D261 Rat hepatoma; stearic acid 1μg/ml", "result": "21.0±3.0"}, {"measurement": "Mean no colonies ± SE", "setting": "D261 Rat hepatoma; stearic acid 10 μg/ml", "result": "18.0±1.5"}, {"measurement": "Mean no colonies ± SE", "setting": "D261 Rat hepatoma; stearic acid 50 μg/ml", "result": "6.0±3.0"}, {"measurement": "activity at 0.001 µg/mL", "setting": "[1]; [2]", "result": 83, "unit": "%"}, {"measurement": "activity at 0.01 µg/mL", "setting": "[1]; [2]", "result": 91, "unit": "%"}, {"measurement": "activity at 0.1 µg/mL", "setting": "[1]; [2]", "result": 86, "unit": "%"}, {"measurement": "activity at 1 µg/mL", "setting": "[1]; [2]", "result": 93, "unit": "%"}, {"measurement": "activity at 10 µg/mL", "setting": "[1]; [2]", "result": 96, "unit": "%"}, {"measurement": "activity at 50 µg/mL", "setting": "[1]; [2]", "result": 84, "unit": "%"}, {"measurement": "Mean no colonies ± SE", "setting": "[1]; stearic acid 1ng/ml", "result": "54.0±10"}, {"measurement": "Mean no colonies ± SE", "setting": "[1]; stearic acid 10 ng/ml", "result": "55.7±3"}, {"measurement": "Mean no colonies ± SE", "setting": "[1]; stearic acid 100 ng/ml", "result": "52.5±6"}, {"measurement": "Mean no colonies ± SE", "setting": "[1]; stearic acid 1µg/ml", "result": "56.7±3"}, {"measurement": "Mean no colonies ± SE", "setting": "[1]; stearic acid 10 µg/ml", "result": "58.7±1"}, {"measurement": "Mean no colonies ± SE", "setting": "[1]; stearic acid 50 µg/ml", "result": "51.2±6"}, {"measurement": "inhibition of colony development", "setting": "[1]; summary of Table 2", "result": "failed to inhibit"}, {"measurement": "activity at 0.1 µg/mL", "setting": "D262B Rat hepatoma; [2]", "result": 111, "unit": "%"}, {"measurement": "activity at 1 µg/mL", "setting": "D262B Rat hepatoma; [2]", "result": 83.8, "unit": "%"}, {"measurement": "activity at 10 µg/mL", "setting": "D262B Rat hepatoma; [2]", "result": 67.6, "unit": "%"}, {"measurement": "activity at 50 µg/mL", "setting": "D262B Rat hepatoma; [2]", "result": 48.6, "unit": "%"}, {"measurement": "inhibition of colony formation", "setting": "D262B Rat hepatoma; dose of 10 µg/ml", "result": "significant inhibition of colony formation"}, {"measurement": "Mean no colonies ± SE", "setting": "D262B Rat hepatoma; stearic acid 100 ng/ml", "result": "41.0± 1.8"}, {"measurement": "Mean no colonies ± SE", "setting": "D262B Rat hepatoma; stearic acid 1μg/ml", "result": "31.0± 5.8"}, {"measurement": "Mean no colonies ± SE", "setting": "D262B Rat hepatoma; stearic acid 10 μg/ml", "result": "25.0± 2.8"}, {"measurement": "Mean no colonies ± SE", "setting": "D262B Rat hepatoma; stearic acid 50 μg/ml", "result": "18.0± 4.5"}]}
